Paper PMC8621334, “Ammonium Formate-Pd/C as a New Reducing System for 1,2,4-Oxadiazoles. Synthesis of Guanidine Derivatives and Reductive Rearrangement to Quinazolin-4-Ones with Potential Anti-Diabetic Activity” (International Journal of Molecular Sciences, 2021)

Target: T1, Dipeptidyl-Peptidase IV (DPPIV) (Homo sapiens, UniProt P27487)
T1 construct: gene DPP4
Assay: fluorometric DPPIV activity assay kit, % inhibition at […]
Type: biochemical

T1 sequence (P27487 whole entry): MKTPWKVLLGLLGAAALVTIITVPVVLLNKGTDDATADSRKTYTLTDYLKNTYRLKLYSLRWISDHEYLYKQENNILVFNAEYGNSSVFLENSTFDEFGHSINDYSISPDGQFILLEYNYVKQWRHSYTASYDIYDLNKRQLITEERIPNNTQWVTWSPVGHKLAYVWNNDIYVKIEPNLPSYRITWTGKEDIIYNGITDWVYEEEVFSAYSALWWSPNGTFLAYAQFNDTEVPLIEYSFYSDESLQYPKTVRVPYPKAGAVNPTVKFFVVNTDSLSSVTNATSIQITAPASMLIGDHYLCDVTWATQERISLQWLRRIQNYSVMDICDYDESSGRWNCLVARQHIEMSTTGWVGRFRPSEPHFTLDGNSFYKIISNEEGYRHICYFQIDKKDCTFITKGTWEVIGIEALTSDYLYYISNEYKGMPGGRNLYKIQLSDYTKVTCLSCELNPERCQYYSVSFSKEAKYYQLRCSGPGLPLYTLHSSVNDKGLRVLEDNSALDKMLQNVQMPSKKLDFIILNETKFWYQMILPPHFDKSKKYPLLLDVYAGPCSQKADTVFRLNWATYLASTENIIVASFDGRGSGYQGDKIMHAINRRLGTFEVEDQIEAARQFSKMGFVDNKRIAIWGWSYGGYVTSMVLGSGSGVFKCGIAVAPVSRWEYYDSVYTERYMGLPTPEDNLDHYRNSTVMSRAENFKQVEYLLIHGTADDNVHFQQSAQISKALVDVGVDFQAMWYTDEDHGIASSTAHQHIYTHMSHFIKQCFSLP

Compound | inhibition at 100 µM
CC(=O)NC(=N)NC(=O)c1ccccc1 [2k, N-(N-Acetylcarbamimidoyl)benzamide] | 79.3%
N=C(NC(=O)c1ccccc1)NC(=O)c1ccccc1 [2n, N,N′-(Iminomethylene)dibenzamide] | 82.7%
COc1ccc(-c2nc(=O)c3ccccc3n2C)cc1 [4f, 2-(4-Methoxyphenyl)-1-methylquinazolin-4(1H)-one] | 82.4%
COc1ccc(-c2nc(=O)c3ccccc3[nH]2)cc1 [4h, 2-(4-Methoxyphenyl) quinazolin-4(1H)-one] | 79.1%
O=c1nc(-c2ccc(C(F)(F)F)cc2)[nH]c2ccccc12 [4i, 2-(4-(Trifluoromethyl)phenyl)quinazolin-4(1H)-one] | 72.5%
